Data from ChEMBL document CHEMBL5032522, “N-2-(phenylamino) benzamide derivatives as novel anti-glioblastoma agents: Synthesis and biological evaluation” (Eur J Med Chem, 2021).
Active and inactive are the calls of the source. The calls are words filed in the database; no cut-off is given here.

Experiments:
[1] = tested on: U-87 MG; experiment: Antiproliferative activity against human U-87 MG cells assessed as inhibition of cell growth measured after 72 hrs by CCK-8 assay; format: functional, cell-based, U-87MG ATCC
[2] = tested on: U-251; experiment: Antiproliferative activity against human U-251 cells assessed as inhibition of cell growth measured after 72 hrs by CCK-8 assay; format: functional, cell-based; details: U-251, 72 h
[3] = tested on: C6; experiment: Antiproliferative activity against rat C6 cells assessed as inhibition of cell growth measured after 72 hrs by CCK-8 assay; format: functional, cell-based; details: C6, 72 h
[4] = molecular target: T1, Prostaglandin G/H synthase 2 (Homo sapiens, UniProt P35354); experiment: Inhibition of human recombinant COX-2 using arachidonic acid as substrate preincubated 10 mins followed by substrate addition and measured after 2 mins by ELISA
T1 sequence (P35354 whole entry): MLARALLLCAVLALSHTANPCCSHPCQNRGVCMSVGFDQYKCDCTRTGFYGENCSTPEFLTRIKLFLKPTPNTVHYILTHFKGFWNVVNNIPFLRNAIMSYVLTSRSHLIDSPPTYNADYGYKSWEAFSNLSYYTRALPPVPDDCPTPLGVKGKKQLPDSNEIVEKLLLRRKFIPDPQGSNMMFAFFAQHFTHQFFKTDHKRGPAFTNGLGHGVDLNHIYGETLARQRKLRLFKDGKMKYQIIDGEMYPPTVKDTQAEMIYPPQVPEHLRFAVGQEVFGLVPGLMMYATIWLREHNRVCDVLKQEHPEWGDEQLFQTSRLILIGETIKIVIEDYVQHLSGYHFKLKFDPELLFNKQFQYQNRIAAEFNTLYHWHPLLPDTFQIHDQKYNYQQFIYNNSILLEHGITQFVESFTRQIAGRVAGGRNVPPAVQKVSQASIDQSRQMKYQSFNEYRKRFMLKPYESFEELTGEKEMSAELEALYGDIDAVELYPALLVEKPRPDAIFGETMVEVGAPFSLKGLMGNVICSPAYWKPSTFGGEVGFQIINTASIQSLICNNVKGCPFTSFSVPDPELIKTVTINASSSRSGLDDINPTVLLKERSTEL

[5] = molecular target: T2, DNA topoisomerase 1 (Homo sapiens, UniProt P11387); experiment: Inhibition of human topoisomerase I using DNA pBR322 as substrate assessed as DNA relaxation incubated for 45 mins by ethidium bromide staining based agarose gel electrophoresis
T2 sequence (P11387 whole entry): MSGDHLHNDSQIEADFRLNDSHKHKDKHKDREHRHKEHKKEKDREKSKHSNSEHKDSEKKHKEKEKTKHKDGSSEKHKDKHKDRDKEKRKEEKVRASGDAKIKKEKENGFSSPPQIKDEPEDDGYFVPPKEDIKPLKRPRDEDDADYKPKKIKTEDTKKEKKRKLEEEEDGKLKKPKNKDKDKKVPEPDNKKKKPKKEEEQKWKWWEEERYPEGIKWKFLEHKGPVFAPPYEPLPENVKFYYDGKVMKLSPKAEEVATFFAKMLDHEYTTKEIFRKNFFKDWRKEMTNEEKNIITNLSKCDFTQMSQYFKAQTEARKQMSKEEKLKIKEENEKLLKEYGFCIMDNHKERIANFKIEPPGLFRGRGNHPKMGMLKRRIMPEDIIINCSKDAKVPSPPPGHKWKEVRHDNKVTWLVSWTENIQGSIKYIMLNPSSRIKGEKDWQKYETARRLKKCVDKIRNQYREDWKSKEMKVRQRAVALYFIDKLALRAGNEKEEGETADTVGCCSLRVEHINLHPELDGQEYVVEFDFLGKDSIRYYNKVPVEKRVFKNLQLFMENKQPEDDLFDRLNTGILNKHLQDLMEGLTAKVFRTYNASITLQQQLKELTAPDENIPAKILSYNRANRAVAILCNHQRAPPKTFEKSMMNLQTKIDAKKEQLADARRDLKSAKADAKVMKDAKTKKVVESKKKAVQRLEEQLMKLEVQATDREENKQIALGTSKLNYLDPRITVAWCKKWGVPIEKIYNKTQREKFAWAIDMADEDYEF

[6] = molecular target: T3, DNA topoisomerase 1 (Homo sapiens) (UniProt P11387); experiment: Inhibition of human topoisomerase I using DNA pBR322 as substrate assessed as DNA intercalation at 100 uM incubated for 30 mins by ethidium bromide staining based agarose gel electrophoresis method
T3 sequence (whole entry): T2 sequence (P11387 whole entry)

[7] = tested on: U-251; experiment: Inhibition of cell invasion in human U-251 cells incubated for 24 hrs by crystal violet staining based light microscopic analysis; format: functional
[8] = tested on: U-87 MG; experiment: Inhibition of cell invasion in human U-87 MG cells incubated for 24 hrs by crystal violet staining based light microscopic analysis; format: functional; details: U-87MG ATCC
[9] = tested on: U-87 MG; experiment: Inhibition of cell migration in human U-87 MG cells incubated for 24 hrs by crystal violet staining based light microscopic analysis; format: functional; details: U-87MG ATCC
[10] = tested on: U-251; experiment: Inhibition of cell migration in human U-251 cells incubated for 24 hrs by crystal violet staining based light microscopic analysis; format: functional
[11] = molecular target: T4, Prostaglandin G/H synthase 2 (Rattus norvegicus) (UniProt P35355); experiment: In vivo inhibition of COX2 in ip dosed orthotopic Sprague-Dawley rat model inoculated with C6 cells assessed as reduction in PGE2 production by ELISA; format: functional, organism-based
T4 sequence (whole entry): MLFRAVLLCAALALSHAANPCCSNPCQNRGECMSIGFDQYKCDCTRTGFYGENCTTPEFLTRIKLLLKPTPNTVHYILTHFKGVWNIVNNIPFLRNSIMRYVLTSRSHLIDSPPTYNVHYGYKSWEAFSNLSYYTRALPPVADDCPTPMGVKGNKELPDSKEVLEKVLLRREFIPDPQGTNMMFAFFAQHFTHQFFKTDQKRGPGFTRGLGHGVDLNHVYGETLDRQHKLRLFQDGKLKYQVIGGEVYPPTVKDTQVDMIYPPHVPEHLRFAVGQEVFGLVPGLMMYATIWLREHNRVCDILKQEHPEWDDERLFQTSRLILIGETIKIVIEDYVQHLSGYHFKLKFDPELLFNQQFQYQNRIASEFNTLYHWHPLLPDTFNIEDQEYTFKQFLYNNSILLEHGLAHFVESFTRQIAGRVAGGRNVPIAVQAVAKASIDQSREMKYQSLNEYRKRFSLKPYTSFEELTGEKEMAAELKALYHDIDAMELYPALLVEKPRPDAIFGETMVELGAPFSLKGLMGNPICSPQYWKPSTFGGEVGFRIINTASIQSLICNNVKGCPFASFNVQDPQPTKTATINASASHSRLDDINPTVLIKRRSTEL

[12] = Toxicity in Sprague-Dawley rat inoculated with C6 cells assessed as reduction in body weight at 50 mg/kg, ip bid administered for 14 days; format: organism-based; details: in vivo, 336 h, time 14 day

Compound	IC50 [1] [µM]	IC50 [2] [µM]	IC50 [3] [µM]	IC50 [4] [µM]	IC50 [5] [µM]	inhibition [6]	inhibition [7]	inhibition [8]	inhibition [9]	inhibition [10]	inhibition [11]	Activity [12]
O=C(Nc1ccc2c(c1)OCO2)c1ccccc1Nc1cccc(C(F)(F)F)c1	26	12.9	15.6	105	105	–	–	–	–	–	–	–
COc1ccc(NC(=O)c2ccccc2NCc2ccccc2)cc1	> 200	> 200	> 200	> 150	> 125	–	–	–	–	–	–	–
COc1ccc(NC(=O)c2ccccc2Nc2cccc(C)c2C)cc1	73.5	138	> 200	> 150	> 125	–	–	–	–	–	–	–
COc1ccc(NC(=O)c2ccccc2Nc2cccc(C(F)(F)F)c2)cc1OC	72.4	86.2	36.5	> 150	> 125	–	–	–	–	–	–	–
COc1ccc(NC(=O)c2ccccc2Nc2cccc(Cl)c2C)cc1OC	99.8	> 200	44	92.6	> 125	–	–	–	–	–	–	–
COc1cc(NC(=O)c2ccccc2Nc2cccc(C(F)(F)F)c2)cc(OC)c1OC	52.1	50.7	75.2	> 150	> 125	–	–	–	–	–	–	–
c1ccc(-c2cc(-c3ccccc3)c3ncccc3n2)cc1	> 200	> 200	103	> 150	> 125	inactive	Dose-Dependent Effect	Dose-Dependent Effect	Dose-Dependent Effect	Dose-Dependent Effect	–	–
COc1ccc(CNC(=O)c2ccccc2Nc2ccccc2)cc1	> 200	> 200	> 200	17.4	> 125	–	–	–	–	–	–	–
CC[C@@]1(O)C(=O)OCc2c1cc1n(c2=O)Cc2cc3c(CN(C)C)c(O)ccc3nc2-1 [TOPOTECAN]	0.06	0.37	5.8	–	–	–	–	–	–	–	–	–
COc1cc(NS(C)(=O)=O)ccc1Nc1c2ccccc2nc2ccccc12	–	–	–	–	–	Active	–	–	–	–	–	–
COc1ccc(NC(=O)c2ccccc2Nc2ccccc2)cc1	> 200	184	> 200	> 150	> 125	–	–	–	–	–	–	–
COc1ccc(NC(=O)c2ccccc2Nc2cccc(Cl)c2C)c(OC)c1	> 200	> 200	> 200	115	70.9	–	–	–	–	–	–	–
COc1ccc(NC(=O)c2ccccc2Nc2cccc(Cl)c2)cc1	> 200	165	> 200	> 150	85.7	–	–	–	–	–	–	–
CSc1ccc(NC(=O)c2ccccc2Nc2cccc(C(F)(F)F)c2)cc1	> 200	92.4	> 200	> 150	> 125	–	–	–	–	–	–	–
Cc1c(Cl)cccc1Nc1ccccc1C(=O)O [TOLFENAMIC ACID]	> 100	> 100	> 100	–	–	–	–	–	–	–	–	–
COc1ccc(NC(=O)c2cccnc2Nc2cccc(Cl)c2C)cc1	187	> 200	> 200	> 150	61.2	–	–	–	–	–	–	–
COc1ccc(CCNC(=O)c2ccccc2Nc2ccccc2)cc1	> 200	> 200	130	> 150	107	–	–	–	–	–	–	–
COc1ccc(NC(=O)c2ccccc2Nc2cccc(C)c2C)cc1OC	144	> 200	169	48.1	85.6	–	–	–	–	–	–	–
Cn1nnc2c(C(N)=O)ncn2c1=O [TEMOZOLOMIDE]	–	–	–	–	–	–	–	–	–	–	inactive	Toxic
COc1cc(NC(=O)c2ccccc2Nc2cccc(Cl)c2C)cc(OC)c1OC	54.5	178	> 200	117	50.9	–	–	–	–	–	–	–
COc1ccc(NC(=O)c2ccccc2Nc2cccc(C(F)(F)F)c2)cc1	142	> 200	99.1	> 150	> 125	–	–	–	–	–	–	–
COc1ccc(CCCNC(=O)c2ccccc2Nc2ccccc2)cc1	> 200	> 200	> 200	> 150	> 125	–	–	–	–	–	–	–
COc1ccc(NC(=O)c2cccnc2Nc2cccc(C(F)(F)F)c2)cc1	> 200	> 200	> 200	> 150	108	–	–	–	–	–	–	–
